Experimental findings from patent US20230391760A1, “HETEROCYCLIC GLP-1 AGONISTS” (Gasherbrum Bio, Inc., priority 2020, published 2023) are described below.

Structures are written as SMILES.

The target of this test is GLP-1 Receptor (Homo sapiens, UniProt P43220). The test is described as follows: GLP-1R agonist cAMP stimulation assay (HEK293/GLP1R/CRE-LUC cells, cAMP dynamic 2 Kit). Type of test: cell-based. The conditions noted are these: HEK293/CRE-Luc cell line stably expressing the GLP-1 Receptor, 30 min at 37° C. Summed up: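 cAMP measured by HTRF competition (d2-labelled cAMP with cryptate antibody, 1 h, room temperature, protected from light). Before that, GLP1R/CRE-Luc HEK293 cells (1000/well) were exposed for 30 min at 37 °C to half-log compound dilutions in DPBS containing IBMX 0.5 mM and BSA 0.1%.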
GLP-1 Receptor, sequence (P43220 24-463, species assumed): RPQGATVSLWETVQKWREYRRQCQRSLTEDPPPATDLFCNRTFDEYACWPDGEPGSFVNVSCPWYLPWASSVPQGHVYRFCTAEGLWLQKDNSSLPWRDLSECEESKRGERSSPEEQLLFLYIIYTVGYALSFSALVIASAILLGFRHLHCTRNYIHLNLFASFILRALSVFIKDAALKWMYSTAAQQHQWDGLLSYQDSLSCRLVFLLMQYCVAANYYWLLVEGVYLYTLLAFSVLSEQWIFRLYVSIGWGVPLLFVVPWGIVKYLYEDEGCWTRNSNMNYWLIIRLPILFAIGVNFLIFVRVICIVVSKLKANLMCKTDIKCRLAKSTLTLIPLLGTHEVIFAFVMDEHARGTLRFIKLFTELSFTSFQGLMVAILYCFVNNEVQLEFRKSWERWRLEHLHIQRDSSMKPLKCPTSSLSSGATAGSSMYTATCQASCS
In general, EC50 refers to the midpoint of the concentration-response curve. A higher EC50 goes with weaker potency. As to `COCCn1c(CN2CCC(c3cccc4c3OC(C)(c3ccc(Cl)cc3F)O4)CC2)nc2cc(-c3nnc(C(F)(F)F)[nH]3)cnc21` (centres unmarked) [Compound 402, 4-[2-(4-chloro-2-fluorophenyl)-2-methyl-2H-1,3-benzodioxol-4-yl]-1-{[3-(2-methoxyethyl)-6-[5-(trifluoromethyl)-4H-1,2,4-triazol-3-yl]-3H-imidazo[4,5-b]pyridin-2-yl]methyl}piperidine], the EC50 amounted to 750 pM.

With `CC1(c2ccc(C#N)cc2F)Oc2cccc(C3CCN(Cc4nc5cc(-c6nnc(C(F)(F)F)[nH]6)cnc5n4C[C@@H]4CCO4)CC3)c2O1` (stereo partly drawn) [Compound 403a, 3-fluoro-4-(2-methyl-4-{1-[(3-{[(2S)-oxetan-2-yl]methyl}-6-[5-(trifluoromethyl)-4H-1,2,4-triazol-3-yl]-3H-imidazo[4,5-b]pyridin-2-yl)methyl]piperidin-4-yl}-2H-1,3-benzodioxol-2-yl)benzonitrile], the response was half-maximal at 20 pM (EC50).

`CC1(c2ccc(F)cc2Cl)Oc2cccc(C3CCN(Cc4nc5cc(-c6nnc(C(F)(F)F)[nH]6)ccc5n4C[C@@H]4CCO4)CC3)c2O1` (stereo partly drawn) [Compound 404a, 2-({4-[2-(2-chloro-4-fluorophenyl)-2-methyl-2H-1,3-benzodioxol-4-yl]piperidin-1-yl}methyl)-1-{[(2S)-oxetan-2-yl]methyl}-5-[5-(trifluoromethyl)-4H-1,2,4-triazol-3-yl]-1H-1,3-benzodiazole]: a half-maximal effect (EC50) was put at 45 pM.

For `CC1(c2ccccc2)Oc2cccc(C3CCN(Cc4nc5cc(-c6nnc(C(F)(F)F)[nH]6)ccc5n4C[C@@H]4CCO4)CC3)c2O1` (stereo partly drawn) [Compound 405a, 2-{[4-(2-methyl-2-phenyl-2H-1,3-benzodioxol-4-yl)piperidin-1-yl]methyl}-1-{[(2S)-oxetan-2-yl]methyl}-5-[5-(trifluoromethyl)-4H-1,2,4-triazol-3-yl]-1H-1,3-benzodiazole], the EC50 was determined as 530 pM.

Consider `Cc1nnc(-c2ccc3c(c2)nc(CN2CCC(c4cccc5c4O[C@@](C)(c4ccc(Cl)cc4F)O5)CC2)n3C[C@@H]2CCO2)[nH]1` [Compound 406a, 2-({4-[(2S)-2-(4-chloro-2-fluorophenyl)-2-methyl-2H-1,3-benzodioxol-4-yl]piperidin-1-yl}methyl)-5-(5-methyl-4H-1,2,4-triazol-3-yl)-1-{[(2S)-oxetan-2-yl]methyl}-1H-1,3-benzodiazole], for which the concentration giving a half-maximal response (EC50) was found to be 18 pM.

Compound `O=c1[nH]c(-c2cnc3c(c2)nc(CN2CCC(c4cccc5c4OC[C@@H](c4ccc(Cl)cc4)O5)CC2)n3C[C@@H]2CCO2)no1` [Compound 407a, 3-[2-({4-[(2R)-2-(4-chlorophenyl)-2,3-dihydro-1,4-benzodioxin-5-yl]piperidin-1-yl}methyl)-3-{[(2S)-oxetan-2-yl]methyl}-3H-imidazo[4,5-b]pyridin-6-yl]-4,5-dihydro-1,2,4-oxadiazol-5-one] had an EC50 of 4500 pM.

Take `FC(F)(F)c1nnc(-c2cnc3c(c2)nc(CN2CCC(c4cccc5c4OC[C@@H](c4ccc(Cl)cc4)O5)CC2)n3C[C@@H]2CCO2)[nH]1` [Compound 408a, 4-[(2R)-2-(4-chlorophenyl)-2,3-dihydro-1,4-benzodioxin-5-yl]-1-[(3-{[(2S)-oxetan-2-yl]methyl}-6-[5-(trifluoromethyl)-4H-1,2,4-triazol-3-yl]-3H-imidazo[4,5-b]pyridin-2-yl)methyl]piperidine]: the EC50 amounted to 280 pM.

The compound `CC1(c2ccc(Cl)cc2F)Oc2cccc(C3CCN(Cc4nc5cc(-c6nc(Br)ns6)ccc5n4C[C@@H]4CCO4)CC3)c2O1` (stereo partly drawn) [Compound 409a, 5-(3-bromo-1,2,4-thiadiazol-5-yl)-2-({4-[2-(4-chloro-2-fluorophenyl)-2-methyl-2H-1,3-benzodioxol-4-yl]piperidin-1-yl}methyl)-1-{[(2S)-oxetan-2-yl]methyl}-1H-1,3-benzodiazole] yielded an EC50 of 6500 pM.

Compound `Cc1nnc(-c2ccc3c(c2)nc(CN2CCC(c4cccc5c4O[C@@](C)(c4ccc(C#N)cc4F)O5)CC2)n3C[C@@H]2CCO2)[nH]1` [Compound 410a, 3-fluoro-4-[(2S)-2-methyl-4-(1-{[5-(5-methyl-4H-1,2,4-triazol-3-yl)-1-{[(2S)-oxetan-2-yl]methyl}-1H-1,3-benzodiazol-2-yl]methyl}piperidin-4-yl)-2H-1,3-benzodioxol-2-yl]benzonitrile] registered an EC50 of 29 pM.

Compound `Cc1nnc(-c2ccc3c(c2)nc(CN2CCC(c4cccc5c4O[C@@](C)(c4ccc(C(N)=O)cc4F)O5)CC2)n3C[C@@H]2CCO2)[nH]1` [Compound 410b, 3-fluoro-4-[(2S)-2-methyl-4-(1-{[5-(5-methyl-4H-1,2,4-triazol-3-yl)-1-{[(2S)-oxetan-2-yl]methyl}-1H-1,3-benzodiazol-2-yl]methyl}piperidin-4-yl)-2H-1,3-benzodioxol-2-yl]benzamide] displayed an EC50 of 82 pM.

`C[C@]1(c2ccc(Cl)cc2F)Oc2cccc(C3CCN(Cc4nc5cc(-c6nnc(C(F)(F)F)[nH]6)ccc5n4CC4(C#N)CC4)CC3)c2O1` [Compound 412a, 1-{[2-({4-[(2S)-2-(4-chloro-2-fluorophenyl)-2-methyl-2H-1,3-benzodioxol-4-yl]piperidin-1-yl}methyl)-5-[5-(trifluoromethyl)-4H-1,2,4-triazol-3-yl]-1H-1,3-benzodiazol-1-yl]methyl}cyclopropane-1-carbonitrile] returned an EC50 of 33 pM.

The compound `CC1(c2ccc(Cl)cc2)Oc2cccc(C3=CCN(Cc4nc5cc(-c6nnc(C(F)(F)F)[nH]6)ccc5n4CC4(C#N)CC4)CC3)c2O1` (centres unmarked) [Compound 413, 1-{[2-({4-[2-(4-chlorophenyl)-2-methyl-2H-1,3-benzodioxol-4-yl]-1,2,3,6-tetrahydropyridin-1-yl}methyl)-5-[5-(trifluoromethyl)-4H-1,2,4-triazol-3-yl]-1H-1,3-benzodiazol-1-yl]methyl}cyclopropane-1-carbonitrile] came in with an EC50 of 600 pM.

Take `Cc1nnc(-c2ccc3c(c2)nc(CN2CCC(c4cccc5c4OC(C)(c4ccc(Cl)cn4)O5)CC2)n3CC2(C#N)CC2)[nH]1` (centres unmarked) [Compound 414, 1-{[2-({4-[2-(5-chloropyridin-2-yl)-2-methyl-2H-1,3-benzodioxol-4-yl]piperidin-1-yl}methyl)-5-(5-methyl-4H-1,2,4-triazol-3-yl)-1H-1,3-benzodiazol-1-yl]methyl}cyclopropane-1-carbonitrile]: the 50% effective concentration (EC50) came to 55 pM.

`CC1(c2ccc(Cl)cn2)Oc2cccc(C3CCN(Cc4nc5cc(-c6nnc(C(F)(F)F)[nH]6)ccc5n4CC4(C#N)CC4)CC3)c2O1` (centres unmarked) [Compound 415, 1-{[2-({4-[2-(5-chloropyridin-2-yl)-2-methyl-2H-1,3-benzodioxol-4-yl]piperidin-1-yl}methyl)-5-[5-(trifluoromethyl)-4H-1,2,4-triazol-3-yl]-1H-1,3-benzodiazol-1-yl]methyl}cyclopropane-1-carbonitrile] had an EC50 of 140 pM.

Compound `CC1(c2ccc(Cl)cn2)Oc2cccc(C3=CCN(Cc4nc5cc(-c6nnc(C7CC7)[nH]6)cnc5n4C[C@@H]4CCO4)CC3)c2O1` (stereo partly drawn) [Compound 416a, 5-chloro-2-[4-(1-{[6-(5-cyclopropyl-4H-1,2,4-triazol-3-yl)-3-{[(2S)-oxetan-2-yl]methyl}-3H-imidazo[4,5-b]pyridin-2-yl]methyl}-1,2,3,6-tetrahydropyridin-4-yl)-2-methyl-2H-1,3-benzodioxol-2-yl]pyridine] gave an EC50 of 14000 pM.

In turn, `C[C@]1(c2ccc(Cl)cc2F)Oc2cccc(C3CCN(Cc4nc5cc(-c6nnn[nH]6)ncc5n4C[C@@H]4CCO4)CC3)c2O1` [Compound 417a, 4-[(2S)-2-(4-chloro-2-fluorophenyl)-2-methyl-2H-1,3-benzodioxol-4-yl]-1-[(3-{[(2S)-oxetan-2-yl]methyl}-6-(1H-1,2,3,4-tetrazol-5-yl)-3H-imidazo[4,5-c]pyridin-2-yl)methyl]piperidine] yielded a concentration giving a half-maximal response (EC50) of 6.5 pM.

Regarding `CO[C@H](C)Cn1c(CN2CCC(c3cccc4c3O[C@@](C)(c3ccc(Cl)cc3F)O4)CC2)nc2cc(-c3nnc(C(F)(F)F)[nH]3)ncc21` [Compound 418a, 4-[(2S)-2-(4-chloro-2-fluorophenyl)-2-methyl-2H-1,3-benzodioxol-4-yl]-1-({3-[(2R)-2-methoxypropyl]-6-[5-(trifluoromethyl)-4H-1,2,4-triazol-3-yl]-3H-imidazo[4,5-c]pyridin-2-yl}methyl)piperidine], the midpoint of the response, the EC50, lay at 95 pM.

In the case of `CO[C@H](C)Cn1c(CN2CCC(c3cccc4c3O[C@@](C)(c3ccc(Cl)cc3F)O4)CC2)nc2cc(-c3noc(=O)[nH]3)ncc21` [Compound 419a, 3-[2-({4-[(2S)-2-(4-chloro-2-fluorophenyl)-2-methyl-2H-1,3-benzodioxol-4-yl]piperidin-1-yl}methyl)-3-[(2R)-2-methoxypropyl]-3H-imidazo[4,5-c]pyridin-6-yl]-4,5-dihydro-1,2,4-oxadiazol-5-one], a half-maximal effect (EC50) was put at 72 pM.

Compound `CO[C@@H](C)Cn1c(CN2CCC(c3cccc4c3O[C@@](C)(c3ccc(Cl)cc3F)O4)CC2)nc2cc(-c3nnc(C(F)(F)F)[nH]3)ncc21` [Compound 420a, 4-[(2S)-2-(4-chloro-2-fluorophenyl)-2-methyl-2H-1,3-benzodioxol-4-yl]-1-({3-[(2S)-2-methoxypropyl]-6-[5-(trifluoromethyl)-4H-1,2,4-triazol-3-yl]-3H-imidazo[4,5-c]pyridin-2-yl}methyl)piperidine] registered an EC50 of 210 pM.

On to `CO[C@@H](C)Cn1c(CN2CCC(c3cccc4c3O[C@@](C)(c3ccc(Cl)cc3F)O4)CC2)nc2cc(-c3noc(=O)[nH]3)ncc21` [Compound 421a, 3-[2-({4-[(2S)-2-(4-chloro-2-fluorophenyl)-2-methyl-2H-1,3-benzodioxol-4-yl]piperidin-1-yl}methyl)-3-[(2S)-2-methoxypropyl]-3H-imidazo[4,5-c]pyridin-6-yl]-4,5-dihydro-1,2,4-oxadiazol-5-one], for which a half-maximal response (EC50) required 340 pM.
